From article PMC11444331 (Journal of medicinal chemistry, 2024)
Bridge positions count the residues as written; N and C are the ends. Peptide text beside a SMILES is read from it.

Key:
human α9α10 nAChRs = human α9α10 nAChRs (Homo sapiens, UniProt Q9GZZ6+Q9UGM1); test: cell-based
human α7 nAChRs = human α7 nAChRs (Homo sapiens, UniProt P36544); test: cell-based
Chain of human α7 nAChRs (P36544 23-502 limits assumed): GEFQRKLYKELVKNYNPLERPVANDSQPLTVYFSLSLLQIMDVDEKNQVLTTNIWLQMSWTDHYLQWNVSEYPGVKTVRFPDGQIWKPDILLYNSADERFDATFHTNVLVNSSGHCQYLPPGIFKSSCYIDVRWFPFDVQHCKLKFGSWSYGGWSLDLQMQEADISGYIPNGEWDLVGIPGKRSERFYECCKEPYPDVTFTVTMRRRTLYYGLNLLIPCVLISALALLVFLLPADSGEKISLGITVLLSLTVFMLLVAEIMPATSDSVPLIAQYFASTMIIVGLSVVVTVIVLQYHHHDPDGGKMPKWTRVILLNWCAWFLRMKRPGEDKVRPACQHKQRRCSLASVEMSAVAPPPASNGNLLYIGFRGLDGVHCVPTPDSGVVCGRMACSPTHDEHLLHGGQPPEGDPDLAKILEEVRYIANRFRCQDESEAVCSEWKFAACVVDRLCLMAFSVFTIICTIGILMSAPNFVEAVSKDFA

Chain of human α9α10 nAChRs (Q9UGM1 26-479 limits assumed): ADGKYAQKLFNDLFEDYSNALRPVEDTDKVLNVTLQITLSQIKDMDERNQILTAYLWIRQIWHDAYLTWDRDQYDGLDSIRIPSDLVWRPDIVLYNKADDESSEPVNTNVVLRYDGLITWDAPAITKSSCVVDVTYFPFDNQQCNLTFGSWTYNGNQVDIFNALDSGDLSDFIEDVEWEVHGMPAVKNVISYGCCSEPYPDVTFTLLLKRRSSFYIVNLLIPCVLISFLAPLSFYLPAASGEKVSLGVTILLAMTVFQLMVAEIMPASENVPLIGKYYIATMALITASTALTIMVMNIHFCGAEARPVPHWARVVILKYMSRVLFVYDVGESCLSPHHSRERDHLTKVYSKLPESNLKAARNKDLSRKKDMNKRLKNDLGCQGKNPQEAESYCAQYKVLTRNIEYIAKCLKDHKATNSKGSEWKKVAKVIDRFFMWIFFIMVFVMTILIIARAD
Chain of human α9α10 nAChRs (Q9GZZ6 25-450 limits assumed): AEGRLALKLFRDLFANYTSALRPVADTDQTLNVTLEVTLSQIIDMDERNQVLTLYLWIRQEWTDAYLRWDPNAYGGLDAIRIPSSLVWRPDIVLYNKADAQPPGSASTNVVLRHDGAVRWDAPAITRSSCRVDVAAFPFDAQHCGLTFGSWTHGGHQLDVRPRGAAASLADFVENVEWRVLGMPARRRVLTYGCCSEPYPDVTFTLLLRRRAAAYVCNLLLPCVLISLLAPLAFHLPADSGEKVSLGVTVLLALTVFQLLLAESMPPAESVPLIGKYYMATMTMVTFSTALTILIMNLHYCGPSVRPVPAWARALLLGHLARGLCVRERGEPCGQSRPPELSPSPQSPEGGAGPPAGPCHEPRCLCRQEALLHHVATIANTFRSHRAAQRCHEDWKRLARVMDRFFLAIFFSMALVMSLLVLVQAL

## C[C@@H]1NC(=O)[C@H](CCCNC(=N)N)NC(=O)[C@H](CO)NC(=O)[C@H](CCCNC(=N)N)NC(=O)[C@H](CO)NC(=O)[C@@H]2CSSC[C@H](NC(=O)CN)C(=O)N[C@@H](CSSC[C@@H](C(N)=O)NC(=O)[C@H](CO)NC(=O)[C@H](CO)NC1=O)C(=O)N[C@@H](CO)C(=O)N[C@@H](Cc1c[nH]cn1)C(=O)N1CCC[C@H]1C(=O)N[C@@H](C)C(=O)N2 [conofurin-Delta-SRSRASS] (H-GCCSHPACSRSRASSC-NH2; disulfide 2-8, 3-16)
Human α9α10 nAChRs
  IC50: > 10 µM
Human α7 nAChRs
  IC50: 5.4 µM
